Results as given in patent US8569264B2, “Antibacterial 4,5-substituted aminoglycoside analogs having multiple substituents” (ISIS Pharmaceuticals, Inc., priority 2005, dated 2013).
In brackets after ≈: the same amount, converted by molar mass. Like-named read-outs stand apart in the source and are kept apart here.

How the values were obtained:
[1] = tested on: Staphylococcus aureus (Smith Strain ATCC 13709); assay: Staphylococcus aureus mouse protection assay; format: in vivo, mice; conditions: Staph Conc. 10^6, 10% Mucin, the 13th table
Method: Two of the novel aminoglycoside compounds of the invention were examined for their anitbacterial activity against staphylococcus aureus. Mice were fed with autoclaved commercial food pellets and sterile water ad libitum. Animals were inoculated intraperitoneally with 0.5 mL/mouse of the indicated concentration of S. aureus (ATCC 13709) containing 10% mucin. There were 10 mice in each treatment group and compounds were administered subcutaneously one and 3 hour after infection. Compounds 15a (R4═R5═CH3) and 15j (R4═H, R5═(CH2)2C6H5)) were used at 75 mg/kg, 37.5 mg/kg, 18.8 mg/kg, 9.4 mg/kg, 4.7 mg/kg, 2.3 mg/kg, 1.17 mg/kg and 0.5 mg/kg. Amakacin, paromomycin and neomycin were used as the positive controls at concentrations of 2 mg/kg, 1 mg/kg and 0.5 mg/kg.
Test compound was administered as an aqueous buffer solution (phosphate buffered saline (PBS), pH=7.4).

[2] = tested on: E. Coli; assay: MIC, E. Coli; format: cell-based
Method: (§1) The MIC assays are carried out in 150 μL volume in duplicate in 96-well clear flat-bottom plates. The bacterial suspension from an overnight culture growth in appropriate medium is added to a solution of test compound in 4% DMSO in water. Final bacterial inoculum is approximately 10^5-10^6 CFU/well. […] Both ampicillin and tetracycline are used as antibiotic-positive controls in each screening assay for S. pyogenes, E. coli imp-, E. coli, S. aureus, E. faecalis, K. pneumoniae and P. vulgaris. Ciprofloxacin is used as an antibiotic positive control in each screening assay for P. aeruginosa.

[3] = tested on: S. Aureus; assay: MIC, S. Aureus; format: cell-based
Method: as §1

[4] = target: 18S ribosomal subunit RNA target; assay: Mass spectrometry based binding assay (FTICR), 18S
Method: (§2) In a typical experiment, 10 μL of an aqueous solution containing 100 mM ammonium acetate buffer, 2.5 or 5 μM of each RNA, and 33% isopropyl alcohol (to aid ion desolvation) was prepared with different concentrations of each ligand or ligand mixture Samples were introduced into the electrospray ionization source (negative ionization mode) at 1 μL/min and ions were stored for 1 sec in an RF-only hexapole following desolvation. The abundances were integrated from the respective ions for free RNA and the ligand-RNA complex. The primary (1:1 RNA:ligand) and secondary (1:2 complex, if observed). […] The peak ratios were measured at each concentration, then a plot of complex/free RNA versus concentration of ligand added was fitted to a second (or higher) order binding polynomial to determine the KD.

[5] = tested on: E. coli S30 bacterial extract (pBestLuc firefly luciferase reporter); assay: Coupled bacterial transcription/translation assay; format: biochemical; conditions: read-out: Trans/Trans IC50
Method: The DNA template, pBestLuc™ (Promega), is a plasmid containing a reporter gene for firefly luciferase fused to a strong tac promoter and ribosome binding site. Messenger RNA from 1 μg pBestLuc is transcribed and translated in E. coli S30 bacterial extract in the presence or absence of test compound. Compounds are tested in a black 96 well microtiter plate with an assay volume of 35 μL. […] The transcription/translation reaction is incubated for 35 minutes at 37° C. followed by detection of functional luciferase with the addition of 30 μL LucLite™ (Packard). Light output is quantitated on a Packard TopCount.

[6] = target: 16S ribosomal subunit RNA target; assay: Mass spectrometry based binding assay (FTICR), 16S
Method: as §2, with “[…],” for “2.5 or 5 μM of each RNA,”

[7] = tested on: gentamicin sensitive Acinetobacter baumannii #2 from Walter Reed; assay: MIC, A. baumannii WReed 2; format: cell-based; conditions: for MIC: Acinetobacter baumannii
Method: as §1
(§3) The following compounds were prepared using methods illustrated in the previous examples. The compounds were also examined in standard bacterial assays against E. Coli, S. Aureus, P. aurginosa, K. pneumoniae, P. vulgaris, and A. baumannii to determine activities. Each of the bacterial cultures that are available from ATCC (www.atcc.org) is identified by its ATCC number. A. baumannii is gentamicin sensitive Acinetobacter baumannii #2 from Walter Reed.

[8] = tested on: S. aureus ATCC 13709; assay: MIC, S. aureus ATCC 13709; format: cell-based; conditions: for MIC: Staphylococcus aureus
Method: as §1, §3

[9] = tested on: P. aurginosa ATCC 29248; assay: MIC, P. aurginosa ATCC 29248; format: cell-based
Method: as §1, §3

[10] = tested on: K. pneumoniae ATCC 10031; assay: MIC, K. pneumoniae ATCC 10031; format: cell-based; conditions: for MIC: Klebsiella pneumoniae
Method: as §1, §3

[11] = tested on: P. aurginosa ATCC 25416; assay: MIC, P. aurginosa ATCC 25416; format: cell-based
Method: as §1, §3

[12] = tested on: E. coli ATCC 25922; assay: MIC, E. coli ATCC 25922; format: cell-based; conditions: for MIC: Escherichia coli
Method: as §1, §3

[13] = tested on: P. vulgaris ATCC 8427; assay: MIC, P. vulgaris ATCC 8427; format: cell-based; conditions: for MIC: Proteus vulgaris
Method: as §1, §3

For `CN(C)CC1OC(OC2C(N)CC(N)C(O)C2OC2OC(CO)C(OC3OC(CN)C(O)C(O)C3N)C2O)C(N)C(O)C1O` (stereo not shown) [Compound 15a], the “# Dead mice/Total mice in group” value ([1]; 0.5 mg/kg subcutaneously) was 8/10, the “# Dead mice/Total mice in group” value ([1]; 1 mg/kg subcutaneously) was 7/10 and the “# Dead mice/Total mice in group” value ([1]; 2 mg/kg subcutaneously) was 7/10. The “# Dead mice/Total mice in group” value ([1]; 4.5 mg/kg subcutaneously) was 1/10, the “# Dead mice/Total mice in group” value ([1]; 9 mg/kg subcutaneously) was 0/10 and the “# Dead mice/Total mice in group” value ([1]; 18 mg/kg subcutaneously) was 0/10. For the same compound, the “# Dead mice/Total mice in group” value ([1]; 37 mg/kg subcutaneously) was 0/10, the “# Dead mice/Total mice in group” value ([1]; 75 mg/kg subcutaneously one and 3 hour after infection, intraperitoneal) was 0/10 and the “MIC E. Coli.” value ([2]; Example 108) was 3 to 6 µM. The “MIC S. Aureus” value ([3]; Example 108) was 2 to 3 µM, the Kd ([4]; Example 108) was 700 nM and the IC50 ([5]; Example 108) was 300 nM. For the same compound, the Kd ([6]; Example 108) was 600 nM.

With `NCC1OC(OC2C(CO)OC(OC3C(O)C(N)CC(N)C3OC3OC(CNCCc4cccc(C(F)(F)F)c4)C(O)C(O)C3N)C2O)C(N)C(O)C1O` (stereo not shown) [Compound 15u] the “MIC A. baumannii WReed 2” value ([7]; Example 111) was 10 to 20 µM, the “MIC S. aureus ATCC 13709” value ([8]; Example 111) was 0.3 to 0.6 µM and the “MIC P. aurginosa ATCC 29248” value ([9]; Example 111) was greater than 40 µM. The “MIC K. pneumoniae ATCC 10031” value ([10]; Example 111) was 0.6 to 1.3 µM, the “MIC P. aurginosa ATCC 25416” value ([11]; Example 111) was greater than 40 µM and the “MIC E. coli ATCC 25922” value ([12]; Example 111) was 1.3 to 2.5 µM. The “MIC P. vulgaris ATCC 8427” value ([13]; Example 111) was greater than 40 µM.

Work on `NCC[C@H](O)C(=O)N[C@@H]1C[C@H](N)[C@@H](O[C@H]2O[C@H](CO)[C@@H](O)[C@H](O)[C@H]2N)[C@H](O[C@@H]2O[C@H](CO)[C@@H](O[C@H]3O[C@@H](CN)[C@@H](O)[C@H](O)[C@H]3N)[C@H]2OCCNCCc2ccccc2)[C@H]1O` [Compound 46a, N-1-haba-2″-O-phenylethylaminoethyl paromomycin] yielded an MIC ([7]; Example 110) of 0.6 to 1.3 µM (≈ 0.518 to 1.12 µg/mL), an MIC ([7]; Example 111) of 10 to 20 µM (≈ 8.64 to 17.3 µg/mL) and an MIC ([8]; ATCC13709, Example 110) of 0.6 to 1.2 µM (≈ 0.518 to 1.04 µg/mL). It also gave an MIC ([8]; ATCC13709, Example 111) of 0.2 to 0.3 µM (≈ 0.173 to 0.259 µg/mL), an MIC ([9]; Example 110) of 1.3 to 2.5 µM (≈ 1.12 to 2.16 µg/mL) and an MIC ([9]; Example 111) of 5 to 10 µM (≈ 4.32 to 8.64 µg/mL). For the same compound, the MIC ([10]; ATCC10031, Example 110) was less than 0.6 µM, the MIC ([10]; ATCC10031, Example 111) was 0.3 to 0.6 µM (≈ 0.259 to 0.518 µg/mL) and the MIC ([11]; Example 110) was 0.6 to 1.3 µM (≈ 0.518 to 1.12 µg/mL). It also gave an MIC ([11]; Example 111) of 10 to 20 µM (≈ 8.64 to 17.3 µg/mL), an MIC ([12]; ATCC25922, Example 110) of 0.6 to 1.3 µM (≈ 0.518 to 1.12 µg/mL) and an MIC ([12]; ATCC25922, Example 111) of 1.3 to 2.5 µM (≈ 1.12 to 2.16 µg/mL). The MIC ([13]; ATCC8427, Example 110) was 0.6 to 1.3 µM (≈ 0.518 to 1.12 µg/mL) and the MIC ([13]; ATCC8427, Example 111) was 5 to 10 µM (≈ 4.32 to 8.64 µg/mL).

Compound `NCCCNCCO[C@H]1[C@H](O[C@@H]2[C@@H](O)[C@H](NC(=O)[C@@H](O)CCN)C[C@H](N)[C@H]2O[C@H]2O[C@H](CO)[C@@H](O)[C@H](O)[C@H]2N)O[C@H](CO)[C@H]1O[C@H]1O[C@@H](CN)[C@@H](O)[C@H](O)[C@H]1N` [Compound 46b, N-1-haba-2″-O-(1,3-diamino)ethyl paromomycin] has an MIC ([7]; Example 110) of 2.5 to 5 µM (≈ 2.04 to 4.08 µg/mL), an MIC ([8]; ATCC13709, Example 110) of 1.2 to 2.5 µM (≈ 0.98 to 2.04 µg/mL) and an MIC ([9]; Example 110) of 5 to 10 µM (≈ 4.08 to 8.17 µg/mL). For the same compound, the MIC ([10]; ATCC10031, Example 110) was 1.3 to 2.5 µM (≈ 1.06 to 2.04 µg/mL), the MIC ([11]; Example 110) was 1.3 to 2.5 µM (≈ 1.06 to 2.04 µg/mL) and the MIC ([12]; ATCC25922, Example 110) was 5 to 10 µM (≈ 4.08 to 8.17 µg/mL). It also gave an MIC ([13]; ATCC8427, Example 110) of 5 to 10 µM (≈ 4.08 to 8.17 µg/mL).

For `CN(C)CCOC[C@H]1O[C@@H](O[C@@H]2[C@@H](O)[C@H](N)C[C@H](N)[C@H]2O[C@H]2O[C@H](CO)[C@@H](O)[C@H](O)[C@H]2N)[C@H](O)[C@@H]1O[C@H]1O[C@@H](CN)[C@@H](O)[C@H](O)[C@H]1N` [Compound 54, 5″-O-(2-N,N-dimethylaminoethyl) paromomycin], the “MIC E. Coli.” value ([2]; Example 105) was 6 to 12 µM, the “MIC S. Aureus” value ([3]; Example 105) was 25 to 50 µM and the Kd ([4]; FTICR mass spectrometry, Example 105) was 68000 nM. For the same compound, the IC50 ([5]; Example 105) was 300 nM and the Kd ([6]; FTICR mass spectrometry, run at 100 nM RNA, Example 105) was 4100 nM.
